Measured values: US20210317086A1, “Tramadol HBR-Celecoxib Co-Crystal” (Mylan Laboratories Limited, priority 2018, published 2021)

Experiment: Indicative stability: storage of the co-crystal at 40° C./75% RH and at 25° C./60% RH for 6 months, analysed by PXRD and HPLC
Format: physicochemical
Protocol: The PXRD measurements were carried out using PANalytical X′Pert PRO powder diffractometer equipped with goniometer of θ/θ configuration and X'Celerator detector. The Cu-anode X-ray tube was operated at 40 kV and 30 mA. The experiments were conducted over the […] of 2.0°-50.0°, 0.030° step size and 50 seconds step time.
In yet another embodiment, physical and chemical stability of 1:1 co-crystal of (rac)-tramadol.HBr-celecoxib sample was determined by storing the sample at 40° C./75% relative humidity (RH) and at 25° C./60% relative humidity (RH) for 6 months as mentioned in below Table 1. The samples were analyzed by PXRD and HPLC for final purity.

With “1:1 co-crystal of (rac)-tramadol hydrobromide and celecoxib” as the substance, how does the “HPLC purity (%)” value (at 25° C./60% RH, 1 month) read?
The value was 99.88%.

And the PXRD (at 25° C./60% RH, 1 month)?
The PXRD was “Stable”.

What about the “HPLC purity (%)” value (at 25° C./60% RH, 2 months) of the same substance?
Its value is 99.89%.

What about the PXRD (at 25° C./60% RH, 2 months) of the same substance?
The PXRD was “Stable”.

What about the “HPLC purity (%)” value (at 25° C./60% RH, 3 months) of the same substance?
Its value is 99.87%.

What about the PXRD (at 25° C./60% RH, 3 months) of the same substance?
Its PXRD is “Stable”.

What about the “HPLC purity (%)” value (at 25° C./60% RH, 6 months) of the same substance?
Its value is 99.87%.

What about the PXRD (at 25° C./60% RH, 6 months) of the same substance?
Its PXRD is “Stable”.

What about the “HPLC purity (%)” value (at 25° C./60% RH, Initial) of the same substance?
Its value is 99.89%.

And the PXRD (at 25° C./60% RH, Initial)?
Its PXRD is “Crystalline”.

And the “HPLC purity (%)” value (at 40° C./75% RH, 1 month)?
The value was 99.86%.

What about the PXRD (at 40° C./75% RH, 1 month) of the same substance?
The PXRD was “Stable”.

What about the “HPLC purity (%)” value (at 40° C./75% RH, 2 months) of the same substance?
The value was 99.89%.

And the PXRD (at 40° C./75% RH, 2 months)?
Its PXRD is “Stable”.

What about the “HPLC purity (%)” value (at 40° C./75% RH, 3 months) of the same substance?
Its value is 99.88%.

And the PXRD (at 40° C./75% RH, 3 months)?
The PXRD was “Stable”.

And the “HPLC purity (%)” value (at 40° C./75% RH, 6 months)?
Its value is 99.86%.

And the PXRD (at 40° C./75% RH, 6 months)?
Its PXRD is “Stable”.

And the “HPLC purity (%)” value (at 40° C./75% RH, Initial)?
The value was 99.89%.

What about the PXRD (at 40° C./75% RH, Initial) of the same substance?
Its PXRD is “Crystalline”.

And the “physical and chemical stability” value (conclusion from 6 months storage at 40° C./75% RH and 25° C./60% RH)?
Its value is “physically and chemically stable”.

What about the “change in HPLC purity and PXRD pattern on storage” value (stored for 6 months at 40° C./75% RH and at 25° C./60% RH) of the same substance?
Its value is “no change in HPLC purity and PXRD pattern”.
